Measurements: US7294715B2, “Aporphine and oxoaporphine compounds and pharmaceutical use thereof” (Lotus Pharmaceutical Co., Ltd., priority 2003, dated 2007)
Marks after values point to notes of the source that are not given here.

Columns and labels:
[1] = Serum glucose levels in NIDDM animals; type: in vivo, mouse; settings: NIDDM rats, n=5, vehicle 0
[2] = system: MCAO rats; experiment: Middle cerebral artery occlusion (MCAO) cerebral ischemia lesions in rats; type: in vivo, rat; settings: for Infarcted Volume (X ± SEM mm^3): vehicle D.W. 214.75 ± 26.37
Source text: The same effects of preventing the ischemia-reperfusion damages with aporphine and oxoaporphine compounds also found in the other organs, such as brain. After Compound 16 or Compound 21, which is a compound of Formula B (where R1, R2, R5, R6 are OMe, R3, R4, R7 are H) was administrated to male Sprague Dawley rats, the effects of test compounds on the artery occlusive cerebral ischemia in the rats were monitored. First, permanent brain ischemia was induced by middle cerebral artery occlusion (MCAO) in the rats. At 0, 6, 24, 48, and 54 hours after the formation of middle cerebral artery occlusion (MCAO), Group I (i.e., the control group) animals were given the solvent (100% DMSO) (1 ml/kg, i.p.); Group II (i.e., the control group) animals were given the distilled water (D.W.) (1 ml/kg, i.p.);Group III animals (NCM-121) were given Compound 16 (1.5 mg/kg, i.p.); Group IV animals (NCM-124) were given Compound 21 (1.7 mg/kg, i.p); Group V animals were given MK-801 (0.3 mg/kg, i.p.), an antagonist of the N-methyl-D-aspartic acid (NMDA) receptor. There were ten rats in each group. Four days after the formation of MCAO, all the rats were sacrificed. Brain sections were made and stained with 2% cresol purple. The areas and volumes of cerebral ischemia lesions in each section were recorded.

[3] = system: Langendorff perfused rat hearts; experiment: Coronary flow in Langendorff perfused rat hearts; settings: FIG. 3
Experimental: Adult male Wistar rats weighing 275-325 g, were intraperitoneally anesthetized with sodium pentobarbital (50 mg·kg^−1) and given heparin (300 Ukg·kg^−1) by the same route. Hearts were rapidly excised and immersed in 37° C. perfusion medium. The aorta was cannulated and retrograde-perfused at 80 mmHg with Tyrode's solution containing 120 mM NaCl, 25 mM NaHCO3, 3 mM KCl, 1.2 mM NaH2PO4, 2.5 mM CaCl2, 1.2 mM MgCl2, and […] 5.5 mM glucose. The perfusate was equilibrated with 95% O2, 5% CO2 at 37° C. Perfusion pressure was monitored using a MLT844/D pressure transducer (Capto, Horten, Norway) connected to a PowerLab (ADInstruments, Castle Hill, Australia). The coronary effluent was collected for the measurement of coronary flow.

[4] = system: regional myocardial ischemia and reperfusion (LAD occlusion); experiment: Infarct size in a rat model of regional myocardial ischemia and reperfusion; type: in vivo; settings: rat, LAD occlusion 25 min, reperfusion 2 h; 0.5 mg/kg i.v.; vehicle 58±2%; P<0.05 vs vehicle
Experimental: Seventy two male Wistar rats (215-300 g, Charles River, Margate, U.K.) were anaesthetized with thiopentone sodium (Intraval®, 120 mg/kg i.p.; Rhone-Merrieux, Essex, U.K.). The rats were tracheotomised and ventilated with a Harvard ventilator (70 strokes/min, tidal volume: 8-10 ml/kg, inspiratory oxygen concentration: 30%). Body temperature was maintained at 38±1° C. The right carotid artery was cannulated and connected to a pressure transducer (MLT 844, AD Instruments Ltd, Hastings, UK) to monitor mean arterial blood pressure and heart rate, which were continuously recorded on a data acquisition system (Powerlab® Version 4.0.4, AD Instruments, Hastings, UK) installed on a Dell Dimension 4100 personal computer, throughout the experiment. The right jugular vein was cannulated for the administration of test compound and Evans Blue dye (at the end of the experiment). A parasternal thoracotomy was performed, the heart was suspended in a temporary pericardial cradle and a snare occluder was placed around the left anterior descending coronary artery (LAD). After completion of the surgical procedure the animals were allowed to stabilize for 30 min before LAD ligation. The coronary artery was occluded at time 0 by tightening of the occluder. After 25 min of acute myocardial ischemia, the occluder was released to allow reperfusion for 2 h.
The test compounds were administered as a slow intravenous injection (i.v.) 5 min prior to the onset of reperfusion of the ischemic heart. Following the 2 h reperfusion period, the coronary artery was re-occluded and Evans Blue dye (1 ml of 2% w/v) was injected into the left ventricle, via the right jugular vein cannula, to distinguish between perfused and non-perfused (AAR) sections of the heart. The Evans Blue solution stains the perfused myocardium, while the occluded vascular bed remains uncolored. The animals were sacrificed with an overdose of anesthetic and the heart excised. The heart was sectioned into slices of 3-4 mm thick, the right ventricular wall was removed, and the AAR (pink) was separated from the non-ischemic (blue) area. […]

[5] = system: eNOS; experiment: Western blot analysis for eNOS protein in ischemia-reperfusion rat heart; type: in vivo; settings: ischemia 25 min, reperfusion 2 h, 0.5 mg/kg at 5 min prior to reperfusion, P<0.05 vs vehicle
Experimental: To elucidate the effects of the test compounds on the infarct size caused by regional myocardial ischemia and reperfusion, all animals were randomized into 8 study groups. The first group (Sham) comprised of animals not subjected to regional myocardial ischemia (25 min) followed by reperfusion (2 h) and treated with vehicle (1 ml/kg) 5 minutes prior to the onset of reperfusion. The second group of animals were subjected to regional myocardial ischemia (25 min) followed by reperfusion (2 h) and were treated with vehicle (saline, 1 ml/kg). […]
Hearts were pulverized at −80° C. using liquid nitrogen and a stainless steel pestle and mortar. […] Total protein concentrations were determined using the Bradford method (Bio-Rad, UK). […] Signals were detected using the enhanced chemiluminescence (ECL™) detection system (Cell Signaling Technology, U.S.A.) and autoradiographic film. For quantification of protein expression all blots were reprobed for muscle α-actin expression using 1/2000 dilution of a mouse anti-human actin (muscle antibody (Serotec), followed by incubation with a goat anti-mouse HRP linked secondary antibody ( 1/2000 dilution) (DakoCytomation, Denmark). Densitometry analysis was performed on scanned images (Hewlett Packard Scanjet) and analyzed using Scion Image (Scion Corp, National Institutes of Health, Bethesda, Md.).

[6] = system: focal cerebral ischemia-reperfusion rats; experiment: Striatal blood flow in focal cerebral ischemia-reperfusion rats (laser Doppler flowmetry); type: in vivo, rat; settings: 40-min common carotid occlusion plus endothelin-1, 24-hrs reperfusion, FIG. 4

SMILES: CN(C)C(=N)N=C(N)N [Metformin, reference compound]
- serum glucose Percentage of change (%) ([1]; 100 mg/kg × 3 days, po): 39 ± 1.6%

SMILES: COc1cc2c(cc1OC)-c1c(OC)c(OC)cc3ccnc(c13)C2=O [Compound 21]
- Infarcted Volume (X ± SEM mm^3) ([2]; IP 1.7 mg/kg × 6, N=10, four days after MCAO): 133.75 ± 19.57* mm^3
- % Decrease in total volume of ischemic lesions ([2]; IP 1.7 mg/kg × 6, vs Group II vehicle (D.W.)): 37.72%
- effects in reducing the areas and volumes of cerebral ischemia lesions as compared with MK-801 ([2]; comparison in words): more significant effects
- coronary blood flow [3]: increasing coronary blood flow

SMILES: C[C@]12N[C@H](Cc3ccccc31)c1ccccc12 [MK-801, reference compound]
- Infarcted Volume (X ± SEM mm^3) ([2]; IP 0.3 mg/kg × 6, N=10, four days after MCAO): 47.34 ± 13.79* mm^3
- % Decrease in total volume of ischemic lesions ([2]; IP 0.3 mg/kg × 6, vs Group II vehicle (D.W.)): 77.96%

SMILES: COc1cc2c(cc1OC)-c1c(O)c(OC)cc3c1C(C2)N(C)CC3 (stereo not drawn) [Compound 20]
- infarct size [4]: 34±4 % of the area at risk
- reduction in eNOS protein expression caused by ischemia and reperfusion [5]: significantly reduced
- coronary blood flow [3]: increasing coronary blood flow
- blood flow in brain (striatal blood flow) [6]: increase in blood flow in brain
- serum glucose Percentage of change (%) ([1]; 3 mg/kg × 3 days, iv, 90 minutes after last dose vs pre-treatment): 12 ± 3.5%

SMILES: COc1cc2c(cc1OC(C)C)C(=O)C1c3c(cc(OC(C)C)c(OC)c3-2)CCN1C (stereo not drawn) [Compound 3, 2,9-Diisopropyloxy-1,10-dimethoxy-7-oxoaporphine]
- melting point: 82 to 84 °C

SMILES: COc1cc2c(cc1O)C(=O)C1c3c(cc(OC(C)C)c(OC)c3-2)CCN1C (stereo not drawn) [Compound 4, 9-hydroxy-2-isopropyloxy-1,10-dimethoxy-7-oxoaporphine]
- melting point: 240 to 242 °C

SMILES: COc1ccc2c(c1)-c1c(OC)ccc3c1C(C2=O)N(C)CC3 (stereo not drawn) [Compound 7, 1,10-dimethoxy-7-oxoaporphine]
- melting point: 162 to 164 °C
